Measured values published in article PMC4678037 (Neuropharmacology, 2015).
Where two headings read alike, the source gives them in different places. Marks after values point to notes of the source that are not given here. Each block holds one compound with its values, some of them ahead of it.

Assays:
[1] = tested on: body weight; test: 10-day Phase I Multiple Ascending Dose; assay type: in vivo, human; details: 10-day Phase I MAD; doses giving plasma concentrations comparable to ~20–30% brain CB1R occupancy; AZ data on file
[2] = tested on: body weight; test: Body weight loss in mice on ad lib. 'cafeteria' diet, 3 wks repeated p.o.; assay type: in vivo, mouse; details: approximate, vehicle-corrected, AZ data on file
[3] = target: hCB1R (Homo sapiens, UniProt P21554); assay type: biochemical
[4] = tested on: CB1R; test: Change in [11C]SD5024 binding in pons after CB1R antagonists; assay type: in vivo, cynomolgus monkeys (Macaca fascicularis)
[5] = tested on: CB1R; test: PET CB1R occupancy with [11C]SD5024 in striatum
[6] = target: mCB1R (Mus musculus, UniProt P47746); assay type: biochemical
[7] = tested on: body weight / suicidality; details: ref FDA, 2007, cited from earlier work
[8] = cited from earlier work
[9] = tested on: CB1R; details: across species, ref Fong et al., 2007, Burns et al., Addy et al., 2008a, Proietto et al., 2010, Aronne et al., Hadcock et al.; cited from earlier work
[10] = tested on: CB1R; details: binding to CB1R; ref Donohue et al., 2008a,b; cited from earlier work
[11] = Whole brain uptake of radioligand; assay type: in vivo, cynomolgus monkeys (Macaca fascicularis); details: i.v. bolus of radioligand, 42 PET measurements

hCB1R, sequence (P21554 whole entry): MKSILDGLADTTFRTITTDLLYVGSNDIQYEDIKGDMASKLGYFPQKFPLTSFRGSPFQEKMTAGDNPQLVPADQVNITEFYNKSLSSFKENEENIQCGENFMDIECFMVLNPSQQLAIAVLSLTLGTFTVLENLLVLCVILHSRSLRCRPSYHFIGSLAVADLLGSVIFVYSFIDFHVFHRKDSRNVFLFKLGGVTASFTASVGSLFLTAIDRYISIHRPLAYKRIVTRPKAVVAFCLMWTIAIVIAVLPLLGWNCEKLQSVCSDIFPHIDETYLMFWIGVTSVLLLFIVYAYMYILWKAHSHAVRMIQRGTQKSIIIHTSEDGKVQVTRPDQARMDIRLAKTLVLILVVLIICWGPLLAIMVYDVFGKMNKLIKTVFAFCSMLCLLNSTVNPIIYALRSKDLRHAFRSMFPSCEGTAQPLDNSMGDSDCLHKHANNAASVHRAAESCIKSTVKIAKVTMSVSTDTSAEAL
mCB1R, sequence (P47746 whole entry): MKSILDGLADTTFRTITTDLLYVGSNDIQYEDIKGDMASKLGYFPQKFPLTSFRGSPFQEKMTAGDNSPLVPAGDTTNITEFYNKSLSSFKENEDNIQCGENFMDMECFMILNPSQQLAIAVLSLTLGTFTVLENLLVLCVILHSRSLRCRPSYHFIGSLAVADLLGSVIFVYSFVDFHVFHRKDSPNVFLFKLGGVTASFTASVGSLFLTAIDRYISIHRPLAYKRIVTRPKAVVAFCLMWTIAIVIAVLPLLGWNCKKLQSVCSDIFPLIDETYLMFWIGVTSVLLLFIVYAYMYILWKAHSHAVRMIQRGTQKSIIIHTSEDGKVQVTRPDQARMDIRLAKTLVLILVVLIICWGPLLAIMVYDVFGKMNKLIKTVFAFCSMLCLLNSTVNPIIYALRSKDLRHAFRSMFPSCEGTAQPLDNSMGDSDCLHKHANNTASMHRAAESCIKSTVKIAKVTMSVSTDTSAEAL

Compound: Cc1c(C(=O)NN2CCCCC2)nc(-c2ccc(Cl)cc2Cl)n1-c1ccc(OS(=O)(=O)CCC(F)(F)F)cc1 [AZ compound 1, 4-[2-(2,4-Dichlorophenyl)-5-methyl-4-(piperidin-1-ylcarbamoyl)-1H-imidazol-1-yl]phenyl 3,3,3-trifluoropropane-1-sulfonate]
Effect on body weight [1]: tended to reduce body weight
Maximal in vivo body weight loss (% of baseline) [2]: ~23–25% of baseline
Ki [3]: 0.19 ± 0.01 nM
AUC50–122min difference compared to baseline ([4]; 6.0 mg/kg (highest dose)): −20%
Receptor Occupancy ([5]; striatum, 0.03 mg/kg i.v., monkey 1, plasma 0 μmol/L, data for 50–93 min): 0.4 ^* %
Receptor Occupancy ([5]; striatum, 0.3 mg/kg i.v., monkey 1, plasma 0.038 μmol/L, 50–122 min): 35%
Receptor Occupancy ([5]; striatum, 0.3 mg/kg i.v., monkey 2, plasma 0.055 μmol/L, data for 50–93 min): 23 ^* %
Receptor Occupancy ([5]; striatum, 1.0 mg/kg i.v., monkey 2, plasma 0.154 μmol/L, 50–122 min): 73%
Receptor Occupancy ([5]; striatum, 2.0 mg/kg i.v., monkey 3, plasma 0.999 μmol/L, 50–122 min): 88%
Receptor Occupancy ([5]; striatum, 6.0 mg/kg i.v., monkey 3, plasma 2.220 μmol/L, 50–122 min): 99%
Ki [6]: 0.03 ± 0.002 nM

Compound: Cc1c(C(=O)NN2CCCCC2)nn(-c2ccc(Cl)cc2Cl)c1-c1ccc(Cl)cc1 [Rimonabant, 5-(4-Chlorophenyl)-1-(2,4-dichloro-phenyl)-4-methyl-N-(piperidin-1-yl)-1H-pyrazole-3-carboxamide]
Suicidality in the clinic ([7]; 5 mg dose vs. selected 20 mg dose): absence of a detectable rise in suicidality
Weight loss in the clinic ([7]; 5 mg dose): significant (albeit modest) weight loss
Protein bound ([8]; ref FDA, 2007): > 99.9%
Maximal in vivo body weight loss (% of baseline) [2]: ~20% of baseline

Compound: N#Cc1ccc(S(=O)(=O)N=C(N)N2CC(c3ccccc3)C(c3ccc(Cl)cc3)=N2)cc1 (stereo not drawn) [[^11C]SD5024]
IC50 [10]: 2.8 nM
Ki [10]: 0.5 nM
Peak radioactivity in brain (range) [11]: 2.6 to 4.2 % ID

More lines, main results first:

Ki [3]: 0.2 ± 0.01 nM
Ki [6]: 0.02 ± 0.001 nM
Compound: Cc1c2c(n(-c3ccc(Cl)cc3Cl)c1-c1ccc(OS(=O)(=O)CCC(F)(F)F)cc1)CCN(N1CCCCC1)C2=O [AZ compound 2, 4-[1-(2,4-Dichlorophenyl)-3-methyl-4-oxo-5-piperidin-1-yl-4,5,6,7-tetrahydro-1H-pyrrolo[3,2-c]pyridin-2-yl]phenyl 3,3,3-trifluoropropane-1-sulfonate]
Maximal in vivo body weight loss (% of baseline) [2]: ~30% of baseline
AUC50–122min difference compared to baseline ([4]; 2.0 mg/kg (highest dose)): −23%
Receptor Occupancy ([5]; striatum, 0.06 mg/kg i.v., monkey 2, plasma 0.023 μmol/L, 50–122 min): 0.6%
Receptor Occupancy ([5]; striatum, 0.2 mg/kg i.v., monkey 1, plasma 0.050 μmol/L, 50–122 min): −10%
Receptor Occupancy ([5]; striatum, 0.2 mg/kg i.v., monkey 4, plasma 0.057 μmol/L, 50–122 min): 9.2%
Receptor Occupancy ([5]; striatum, 0.25 mg/kg i.v., monkey 5, plasma 0.083 μmol/L, 50–122 min): 1.4%
Receptor Occupancy ([5]; striatum, 0.3 mg/kg i.v., monkey 2, plasma 0.143 μmol/L, 50–122 min): 35%
Receptor Occupancy ([5]; striatum, 0.6 mg/kg i.v., monkey 5, plasma 0.252 μmol/L, 50–122 min): 64%
Receptor Occupancy ([5]; striatum, 1.0 mg/kg i.v., monkey 4, plasma 0.401 μmol/L, 50–122 min): 69%
Receptor Occupancy ([5]; striatum, 2.0 mg/kg i.v., monkey 1, plasma […], 50–122 min): 78%

Ki [3]: 0.24 ± 0.01 nM
Ki [6]: 0.03 ± 0.002 nM
Compound: Cc1c2c(n(-c3ccc(F)cc3Cl)c1-c1ccc(OS(=O)(=O)CCC(F)(F)F)cc1)CCN(N1CCCCC1)C2=O [AZ compound 3, 4-[1-(2-Chloro-4-fluorophenyl)-3-methyl-4-oxo-5-piperidin-1-yl-4,5,6,7-tetrahydro-1H-pyrrolo[3,2-c]pyridin-2-yl]phenyl 3,3,3-trifluoropropane-1-sulfonate]
Maximal in vivo body weight loss (% of baseline) [2]: ~30% of baseline
AUC50–122min difference compared to baseline ([4]; 0.6 mg/kg (highest dose)): −23%
Receptor Occupancy ([5]; striatum, 0.02 mg/kg i.v., monkey 4, plasma 0.001 μmol/L, 50–122 min): −18%
Receptor Occupancy ([5]; striatum, 0.06 mg/kg i.v., monkey 3, plasma […], 50–122 min): 0.7%
Receptor Occupancy ([5]; striatum, 0.06 mg/kg i.v., monkey 4, plasma 0.020 μmol/L, 50–122 min): −12%
Receptor Occupancy ([5]; striatum, 0.2 mg/kg i.v., monkey 4, plasma 0.084 μmol/L, 50–122 min): 14%
Receptor Occupancy ([5]; striatum, 0.4 mg/kg i.v., monkey 3, plasma 0.245 μmol/L, 50–122 min): 59%
Receptor Occupancy ([5]; striatum, 0.6 mg/kg i.v., monkey 4, plasma 0.275 μmol/L, 50–122 min): 82%

Ki [6]: 0.01 ± 0.001 nM
Compound: C[C@H](NC(=O)C(C)(C)Oc1ccc(C(F)(F)F)cn1)[C@@H](Cc1ccc(Cl)cc1)c1cccc(C#N)c1 [Taranabant, N-[(2S,3S)-4-(4-Chlorophenyl)-3-(3-cyanophenyl)-2-butanyl]-2-methyl-2-{[5-(trifluoromethyl)-2-pyridinyl]oxy}propanamide, reference compound]
CB1R occupancy that may be sufficient for appetite- and body weight-reducing efficacy [9]: 10 to 40%
Protein bound ([8]; ref Li et al., 2010): > 98%
Maximal in vivo body weight loss (% of baseline) [2]: ~30% of baseline
AUC50–122min difference compared to baseline ([4]; 0.2 mg/kg (highest dose)): −29%
CB1R occupancy at exposures corresponding to those needed for optimal clinical efficacy ([5]; non-human primates, typically around): 20–30%
Receptor Occupancy ([5]; striatum, 0.005 mg/kg i.v., monkey 7, plasma 0.002 μmol/L, 50–122 min): 1.7%
Receptor Occupancy ([5]; striatum, 0.015 mg/kg i.v., monkey 7, plasma 0.010 μmol/L, 50–122 min): −3.9%
Receptor Occupancy ([5]; striatum, 0.05 mg/kg i.v., monkey 1, plasma 0.015 μmol/L, 50–122 min): 35%
Receptor Occupancy ([5]; striatum, 0.2 mg/kg i.v., monkey 1, plasma 0.093 μmol/L, 50–122 min): 94%
Plasma concentration corresponding to 20–30% CB1R occupancy ([5]; striatum, present study): 0.01 to 0.02 µmol/L
